Like-named read-outs stand apart in the source and are kept apart here.
What was measured:
[1] = test system: cancer cell lines; assay: Cancer cell proliferation activity (CellTiterGlo, 72 h); format: cell-based; details: 72 h, 72 h, read-out: IC50 cell proliferation
In short: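 Readout is CellTiterGlo luminescence after 72 h compound exposure (0.1% DMSO final), started one day post-seeding, at 37 °C.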

[2] = target: human cytidine deaminase (CDA) (Homo sapiens, UniProt P32320); assay: Metabolism by human cytidine deaminase (CDA), substrate absorbance at 290 nm; details: rate of substrate conversion at 200 μM; could not be fitted
Sequence of human cytidine deaminase (CDA) (P32320 whole entry): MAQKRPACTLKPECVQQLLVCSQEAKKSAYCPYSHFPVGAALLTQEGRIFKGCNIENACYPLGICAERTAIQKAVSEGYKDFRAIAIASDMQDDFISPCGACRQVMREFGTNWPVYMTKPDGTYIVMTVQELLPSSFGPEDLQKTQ
Experimental: Transfer 7.2 μl of each of the substrate DMSO stock in step 2 into a 500 μl 96-Well V-bottom Microplate, clear SBS footprint, cat #P-96-450V-C
Add 352.8 μl assay buffer to the wells
For deaminated product compounds mix 4 μl product with 196 μl assay buffer
This was incubated at 37° C. for 1 h. 200 μl of this mixture was transferred into the assay plate to serve as the product control.
Product+buffer: mix 80 ul of the 2.5× intermediate product stocks (from step 3) with 120 ul assay buffer into product control (no enzyme) wells
Incubate the plate alongside the 20 nM CDA enzyme intermediate stock at 37° C. to temperature equilibrate reagents
Add 120 μl of the 20 nM enzyme mix into the Substrate+CDA wells and start reading at 290 nm every 30 s for about 60 min
50 and 200 uM substrate and product
In 100 mM Tris, pH 7.5, 100 mM KCl, 0.8% carryover DMSO
5 min incubation at 37° C.
Absorbance at 290 nm every 30 s at 37° C. for 1 h using FlexStation 3
Convert A290 to concentration of substrate remaining at time t after enzyme addition:
[formula] • where: • St=absorbance reading of: substrate+CDA wells at time t • So=Average absorbance reading of: substrate+buffer wells • Po=Average absorbance reading of: product+buffer wells • [S]t=initial substrate concentration • Use GraphPad to plot [substrate] against time to calculate initial velocity or slope (μMs^−1) i.e. the linear range of each curve • Express rate in s^−1 by dividing initial velocity by the total enzyme concentration.
Plot rate against [substrate] and fit data to standard Michaelis Menten equation to obtain kcat and KM parameters.

- IC50 ([1]; 5637 (bladder)): 450 nM
- IC50 ([1]; CLS439 (bladder)): 2270 nM
- IC50 ([1]; HS729 (muscle)): 580 nM
- IC50 ([1]; J82 (bladder)): 760 nM
- IC50 ([1]; JAR (placenta)): > 50000 nM
- IC50 ([1]; MT3 (breast)): 80 nM
- IC50 ([1]; PANCI (pancreas)): 620 nM
- IC50 ([1]; PC3 (prostate)): 180 nM
- IC50 ([1]; RD (muscle)): 1030 nM
- IC50 ([1]; T24 (bladder)): 290 nM
- IC50 ([1]; Homo sapiens, A204, 72 h, A204 (muscle)): 20 nM
- IC50 ([1]; Homo sapiens, A549, 72 h, A549 (lung)): 440 nM
- IC50 ([1]; Homo sapiens, A2780, 72 h, A2780 (ovary)): 720 nM
- IC50 ([1]; Homo sapiens, A-375, 72 h, A375 (skin)): 710 nM
- IC50 ([1]; Homo sapiens, A-431, 72 h, A431 (skin)): 470 nM
- IC50 ([1]; Homo sapiens, ACHN, ACHN (kidney)): 390 nM
- IC50 ([1]; Homo sapiens, ASPC1, 72 h, ASPC1 (pancreas)): 580 nM
- IC50 ([1]; Homo sapiens, BT-20, 72 h, BT20 (breast)): 580 nM
- IC50 ([1]; Homo sapiens, BXPC-3, 72 h, BXPC3 (pancreas)): 540 nM
- IC50 ([1]; Homo sapiens, C-33-A, C33A (endometrial)): 240 nM
- IC50 ([1]; Homo sapiens, CAKI-1, 72 h, CAKI1 (kidney)): 110 nM
- IC50 ([1]; Homo sapiens, COLO 205, 72 h, COLO205 (colon)): 210 nM
- IC50 ([1]; Homo sapiens, Caco-2, 72 h, CACO2 (colon)): > 50000 nM
- IC50 ([1]; Homo sapiens, Calu-6, 72 h, CALU6 (lung)): 720 nM
- IC50 ([1]; Homo sapiens, DU-145, 72 h, DU145 (prostate)): 310 nM
- IC50 ([1]; Homo sapiens, EFO-21, 72 h, EFO21 (ovary)): 790 nM
- IC50 ([1]; Homo sapiens, Granta-519, 72 h, GRANTA-519 (hematological)): 70 nM
- IC50 ([1]; Homo sapiens, HCT-15, 72 h, HCT15 (colon)): 460 nM
- IC50 ([1]; Homo sapiens, HCT-116, 72 h, HCT116 (colon)): 470 nM
- IC50 ([1]; Homo sapiens, HEK293, 72 h, HEK293 (kidney)): > 50000 nM
- IC50 ([1]; Homo sapiens, HT-1080, 72 h, HT1080 (connective tissue)): 380 nM
- IC50 ([1]; Homo sapiens, HeLa, HELA (endometrial)): 1000 nM
- IC50 ([1]; Homo sapiens, HepG2, 72 h, HEPG2 (liver)): 1000 nM
- IC50 ([1]; Homo sapiens, Hs-578T, HS578T (breast)): 970 nM
- IC50 ([1]; Homo sapiens, IGROV-1, 72 h, IGROV1 (ovary)): 510 nM
- IC50 ([1]; Homo sapiens, JIMT-1, 72 h, JIMT1 (breast)): 190 nM
- IC50 ([1]; Homo sapiens, Kasumi 1, 72 h, KASUMI-1 (hematological)): 270 nM
- IC50 ([1]; Homo sapiens, L-363, 72 h, L-363 (hematological)): > 50000 nM
- IC50 ([1]; Homo sapiens, LoVo, LOVO (colon)): 290 nM
- IC50 ([1]; Homo sapiens, MDA-MB-231, 72 h, MDAMB231 (breast)): 100 nM
- IC50 ([1]; Homo sapiens, MDA-MB-435, 72 h, MDAMB435 (skin)): 1300 nM
- IC50 ([1]; Homo sapiens, MDA-MB-436, 72 h, MDAMB436 (breast)): 950 nM
- IC50 ([1]; Homo sapiens, MG-63, 72 h, MG63 (bone)): 480 nM
- IC50 ([1]; Homo sapiens, MINO, MINO (hematological)): 60 nM
- IC50 ([1]; Homo sapiens, MV4-11, 72 h, MV4-11 (hematological)): 840 nM
- IC50 ([1]; Homo sapiens, NCI-H23, 72 h, NCI-H23 (lung)): 720 nM
- IC50 ([1]; Homo sapiens, NCI-H292, 72 h, NCIH292 (lung)): 920 nM
- IC50 ([1]; Homo sapiens, NCI-H460, 72 h, NCIH460 (lung)): 770 nM
- IC50 ([1]; Homo sapiens, OVCAR-3, 72 h, OVCAR3 (ovary)): 640 nM
- IC50 ([1]; Homo sapiens, PLC-PRF-5, 72 h, PLCPRF5 (liver)): > 50000 nM
- IC50 ([1]; Homo sapiens, Panc1005, 72 h, PANC1005 (pancreas)): > 50000 nM
- IC50 ([1]; Homo sapiens, Ramos, RAMOS (hematological)): 240 nM
- IC50 ([1]; Homo sapiens, SAOS-2, 72 h, SAOS2 (bone)): 110 nM
- IC50 ([1]; Homo sapiens, SF-268, 72 h, SF268 (brain)): 260 nM
- IC50 ([1]; Homo sapiens, SK-BR-3, 72 h, SKBR3 (breast)): 260 nM
- IC50 ([1]; Homo sapiens, SK-HEP1, 72 h, SKHEP1 (liver)): 320 nM
- IC50 ([1]; Homo sapiens, SK-LMS-1, 72 h, SKLMS1 (uterus)): 860 nM
- IC50 ([1]; Homo sapiens, SK-N-SH, SKNSH (brain)): > 50000 nM
- IC50 ([1]; Homo sapiens, SNB-75, 72 h, SNB75 (brain)): 550 nM
- IC50 ([1]; Homo sapiens, SU-DHL10, 72 h, SU-DHL-10 (hematological)): 560 nM
- IC50 ([1]; Homo sapiens, SU-DHL-6, 72 h, SU-DHL-6 (hematological)): 310 nM
- IC50 ([1]; Homo sapiens, THP-1, 72 h, THP-1 (hematological)): 650 nM
- IC50 ([1]; Homo sapiens, U-87 MG, U87MG (brain)): 400 nM
- IC50 ([1]; Homo sapiens, UO-31, 72 h, UO31 (kidney)): 550 nM
- IC50 ([1]; Homo sapiens, WSU-NHL, WSU-NHL (hematological)): 150 nM
- IC50 ([1]; NCI-H358M, NCIH358M (lung)): 120 nM
- IC50 ([1]; PBMC, PBMC (hematological)): 710 nM
- IC50 ([1]; RD-ES, RDES (bone)): 1900 nM
- substrate conversion by CDA (Inactive) [2]: Inactive
SMILES: Nc1ccn([C@H]2C[C@H](O)[C@](CO)(CF)O2)c(=O)n1 [Cpd. No. 198, 4-amino-1-((2R,4S,5R)-5-(fluoromethyl)-4-hydroxy-5-(hydroxymethyl)tetrahydrofuran-2-yl)pyrimidin-2(1H)-one]
